Data as given in patent publication US8153693B2, “Compounds for the selective treatment of the intestinal immuno-inflammatory component of the celiac disease” (Giuliani International Limited, priority 2007, dated 2012).

Key:
[1] = system: IL-2; experiment: Cytokine assay (ELISA) in culture liquids of duodenal biopsy organ cultures: IL-2; type: cell-based, human; settings: for IL-2, PT + 5ASA C, Mean / IL-2, PT + 5ASA C, Median: peptic-tryptic digest of gliadin (PT)
Description: 3 groups of subjects were evaluated. The first (atrophic) group included 29 subjects with serum tests positive to antiendomysium and anti-transglutaminase antibodies, with a neo-diagnosis of celiac disease and gluten-containing diet. The second (Remission) group included 17 celiac disease subjects in clinical remission and gluten-free diet for at least 6 months. The third (Healthy) group included subjects not suffering from the celiac disease but suffering from inflammation of the gastro-enteric tract. […] The biopsies were washed in saline for two minutes at least three times. […] Three different amounts of medium are shared for the ELISA assay of Th1 and Th2 cytokines released in culture media.

[2] = biological target: T1, PPARγ (Homo sapiens, UniProt P37231); experiment: PPARγ activation, PPRE luciferase reporter in transfected HT-29 STD cells (Example 7); type: cell-based; settings: 30 mM, positive control
T1 construct: HT-29 STD cells were transiently transfected using the Effectene™ transfection reagent; endogenous in cells; host or cells: HT-29 STD (ATCC HTB-38)
T1 sequence (P37231 1-505): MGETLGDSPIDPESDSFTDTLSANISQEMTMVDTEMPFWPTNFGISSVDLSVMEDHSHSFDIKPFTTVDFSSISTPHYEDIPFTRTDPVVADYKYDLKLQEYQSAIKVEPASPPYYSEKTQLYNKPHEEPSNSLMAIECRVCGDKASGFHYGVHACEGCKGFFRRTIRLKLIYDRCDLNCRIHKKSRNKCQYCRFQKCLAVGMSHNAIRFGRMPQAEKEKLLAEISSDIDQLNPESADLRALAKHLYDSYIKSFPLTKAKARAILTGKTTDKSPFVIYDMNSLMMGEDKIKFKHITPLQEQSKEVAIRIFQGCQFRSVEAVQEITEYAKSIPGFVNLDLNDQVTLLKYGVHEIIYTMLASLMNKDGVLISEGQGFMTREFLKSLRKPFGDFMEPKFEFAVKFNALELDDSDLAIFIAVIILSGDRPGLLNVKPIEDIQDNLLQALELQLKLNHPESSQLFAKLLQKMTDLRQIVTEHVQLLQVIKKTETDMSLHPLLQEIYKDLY
Description: The colon carcinoma cell line HT-29 STD (ATCC HTB-38) was routinely grown in DMEM supplemented with 10% heat-FCS, and antibiotics.
HT-29 STD cells were transiently transfected using the Effectene™ transfection reagent (Qiagen™) according to instructions from the manufacturer. To test PPARγ activation, we performed transfection with 500 ng of a minimal promoter construct containing two copies of PPRE obtained from the cytochrome p450 4A (2XCYP). The renilla luciferase plasmid (0.1 μg/well) was also transfected as an internal control for monitoring transfection efficiency and for normalizing the firefly luciferase activity. Transfected cells were left for 24 hours incubation at 37° C. […] The pH of the drug solutions was adjusted to 7.4 with NaOH. Total cell extracts were prepared using the Passive Lysis Buffer (Promega™, Madison, Wis.). Luciferase activity was assayed in 20 μl of the extract using Promega's Dual Luciferase assay system according to manufacturer's protocol. Transfections were assayed in triplicate in at least three separate experiments. The luciferase activity was expressed as fold of the activity obtained in cells treated with the different molecules dividing by luciferase activity from non stimulated cells.
We investigated PPARγ transcriptional activity by transient transfections of epithelial cells with the renilla luciferase and PPRE plasmids. […]

[3] = system: TNF; experiment: Cytokine assay (ELISA) from homogenate of cultured duodenal biopsies: TNF; type: cell-based, human; settings: for TNF, PT + 5ASA O, Mean / TNF, PT + 5ASA O, Median: peptic-tryptic digest of gliadin (PT)
Description: (§1) The biopsies were washed in saline for two minutes at least three times. […] After an incubation time ranging from 4 h to 72 h, at a T of 37° C.: The bioptic fragment is washed three times in saline for two minutes The biopsies are homogenised by mechanical or chemical disintegration Centrifugation is carried out, the supernatant is collected and transferred in a 1.5 ml Eppendorf Fixed cytokines in the mucosal tissue are assayed by the Elisa assay.

[4] = system: IFN; experiment: Cytokine assay (ELISA) from homogenate of cultured duodenal biopsies: IFN; type: cell-based, human; settings: for IFN, PT + 5ASA O, Mean / IFN, PT + 5ASA O, Median: peptic-tryptic digest of gliadin (PT)
Description: as §1

[5] = system: IL-2; experiment: Gene expression (mRNA) by RT-PCR in cultured duodenal biopsies of celiac patients: IL-2; type: cell-based, human; settings: PT medium with 5-ASA versus PT medium, 37° C., 48 h; optical density of bands
[6] = Atrophic population, N 15, Wilcoxon p = 0.03
[7] = Positive control population, N 7
[8] = Positive control population, N 7, Wilcoxon p = 0.07
[9] = Positive control population, N 7, Wilcoxon p = N.S.
[10] = Remission population, N 12, Wilcoxon p = N.S.
[11] = Atrophic population, N 11, Wilcoxon p = 0.002
[12] = Atrophic population, N 11, Wilcoxon p = N.S.
[13] = Remission population, N 5, Wilcoxon p = N.S.
[14] = Atrophic population, N 9, Wilcoxon p = 0.003
[15] = Atrophic population, N 9, Wilcoxon p = 0.019
[16] = Remission population, N 4, Wilcoxon p = N.S.

Nc1ccc(O)c(C(=O)O)c1 [Compound 5ASA, mesalazine]
IL-2, Difference Medium C/Medium + 5ASA C, Mean [1, 6]: 0.0559 | IL-2, Difference Medium C/Medium + 5ASA C, Median [1, 6]: 0.0490 | IL-2, PT + 5ASA C, Mean ([1]; Atrophic population, N 15): 0.124 | IL-2, PT + 5ASA C, Median ([1]; Atrophic population, N 15): 0.0770 | IL-2, Medium + 5ASA C, Mean [1, 7]: 0.356 | IL-2, Medium + 5ASA C, Median [1, 7]: 0.379 | IL-2, Difference Medium C/Medium + 5ASA C, Mean [1, 8]: 0.116 | IL-2, Difference Medium C/Medium + 5ASA C, Median [1, 8]: 0.247 | IL-2, Difference PT C/PT + 5ASA C, Mean [1, 9]: −0.020 | IL-2, Difference PT C/PT + 5ASA C, Median [1, 9]: 0.0210 | IL-2, PT + 5ASA C, Mean [1, 7]: 0.521 | IL-2, PT + 5ASA C, Median [1, 7]: 0.468 | IL-2, Medium + 5ASA C, Mean ([1]; Remission population, N 12): 0.309 | IL-2, Medium + 5ASA C, Median ([1]; Remission population, N 12): 0.253 | IL-2, Difference Medium C/Medium + 5ASA C, Mean [1, 10]: 0.0061 | IL-2, Difference Medium C/Medium + 5ASA C, Median [1, 10]: 5E−4 | IL-2, Difference PT C/PT + 5ASA C, Mean [1, 10]: 0.0365 | IL-2, Difference PT C/PT + 5ASA C, Median [1, 10]: 0.0260 | IL-2, PT + 5ASA C, Mean ([1]; Remission population, N 12): 0.234 | IL-2, PT + 5ASA C, Median ([1]; Remission population, N 12): 0.194 | increase of the reporter gene activity [2]: 2.8±0.7 fold | TNF, Medium + 5ASA O, Mean ([3]; Atrophic population, N 11): 0.123 | TNF, Difference PT O/PT + 5ASA O, Mean [3, 11]: 0.0554 | TNF, Difference PT O/PT + 5ASA O, Median [3, 11]: 0.0270 | TNF, Difference Medium O/Medium + 5ASA O, Mean [3, 12]: 0.0154 | TNF, Difference Medium O/Medium + 5ASA O, Median [3, 12]: 0.0100 | TNF, PT + 5ASA O, Mean ([3]; Atrophic population, N 11): 0.101 | TNF, PT + 5ASA O, Median ([3]; Atrophic population, N 11): 0.0980 | TNF, Medium + 5ASA O, Mean ([3]; Remission population, N 5): 0.122 | TNF, Difference Medium O/Medium + 5ASA O, Mean [3, 13]: −0.00 | TNF, Difference Medium O/Medium + 5ASA O, Median [3, 13]: 0.0050 | TNF, Difference PT O/PT + 5ASA O, Mean [3, 13]: 0.0194 | TNF, Difference PT O/PT + 5ASA O, Median [3, 13]: 0.0210 | TNF, PT + 5ASA O, Mean ([3]; Remission population, N 5): 0.107 | TNF, PT + 5ASA O, Median ([3]; Remission population, N 5): 0.110 | IFN, Medium + 5ASA O, Mean ([4]; Atrophic population, N 9): 0.202 | IFN, Medium + 5ASA O, Median ([4]; Atrophic population, N 9): 0.193 | IFN, Difference Medium O/Medium + 5ASA O, Mean [4, 14]: 0.0951 | IFN, Difference Medium O/Medium + 5ASA O, Median [4, 14]: 0.0560 | IFN, Difference PT O/PT + 5ASA O, Mean [4, 15]: 0.0437 | IFN, Difference PT O/PT + 5ASA O, Median [4, 15]: 0.0380 | IFN, PT + 5ASA O, Mean ([4]; Atrophic population, N 9): 0.179 | IFN, PT + 5ASA O, Median ([4]; Atrophic population, N 9): 0.193 | IFN, Medium + 5ASA O, Mean ([4]; Remission population, N 4): 0.133 | IFN, Difference Medium O/Medium + 5ASA O, Mean [4, 16]: 0.120 | IFN, Difference PT O/PT + 5ASA O, Mean [4, 16]: 0.0230 | IFN, Difference PT O/PT + 5ASA O, Median [4, 16]: 0.0215 | IFN, PT + 5ASA O, Mean ([4]; Remission population, N 4): 0.177 | IFN, PT + 5ASA O, Median ([4]; Remission population, N 4): 0.161 | gene expression (mRNA) of IL-2 [5]: well reduced
